Data reported in the CheMixHub ionic liquid set.
± gives the uncertainty stated by the source.

Assay: xn = mol fraction of the nth substance listed
Settings: 100 kPa

Work on `OC1OC[C@@H](O)[C@H](O)[C@H]1O` (some centres undefined) + CCCCCCCCCCCCCCCC[N+](C)(C)C.[Br-] + O yielded a viscosity (298.15 K, x2 = 7.19e-06, x1 = 0.001926) of 0.934 ± 0.06 mPa·s, a viscosity (298.15 K, x2 = 7.19e-06, x1 = 0.002323) of 0.941 ± 0.06 mPa·s and a viscosity (298.15 K, x2 = 7.19e-06, x1 = 0.002648) of 0.948 ± 0.06 mPa·s. It also gave a viscosity (298.15 K, x2 = 7.2e-06, x1 = 0.0009003) of 0.914 ± 0.06 mPa·s, a viscosity (298.15 K, x2 = 7.2e-06, x1 = 0.001314) of 0.922 ± 0.06 mPa·s and a viscosity (298.15 K, x2 = 7.2e-06, x1 = 0.001634) of 0.928 ± 0.06 mPa·s. The viscosity (298.15 K, x2 = 1.438e-05, x1 = 0.002366) was 0.948 ± 0.06 mPa·s, the viscosity (298.15 K, x2 = 1.438e-05, x1 = 0.002756) was 0.957 ± 0.06 mPa·s and the viscosity (298.15 K, x2 = 1.439e-05, x1 = 0.001528) was 0.931 ± 0.06 mPa·s. For the same compound, the viscosity (298.15 K, x2 = 1.439e-05, x1 = 0.001964) was 0.94 ± 0.06 mPa·s, the viscosity (298.15 K, x2 = 1.44e-05, x1 = 0.0009094) was 0.918 ± 0.06 mPa·s and the viscosity (298.15 K, x2 = 1.44e-05, x1 = 0.001186) was 0.923 ± 0.06 mPa·s. It also gave a viscosity (298.15 K, x2 = 2.157e-05, x1 = 0.002446) of 0.955 ± 0.06 mPa·s, a viscosity (298.15 K, x2 = 2.157e-05, x1 = 0.002688) of 0.961 ± 0.061 mPa·s and a viscosity (298.15 K, x2 = 2.158e-05, x1 = 0.00199) of 0.945 ± 0.06 mPa·s. For the same compound, the viscosity (298.15 K, x2 = 2.159e-05, x1 = 0.001338) was 0.93 ± 0.06 mPa·s, the viscosity (298.15 K, x2 = 2.159e-05, x1 = 0.001717) was 0.939 ± 0.06 mPa·s and the viscosity (298.15 K, x2 = 2.16e-05, x1 = 0.0009887) was 0.923 ± 0.06 mPa·s. For the same compound, the viscosity (308.15 K, x2 = 7.19e-06, x1 = 0.001926) was 0.772 ± 0.06 mPa·s, the viscosity (308.15 K, x2 = 7.19e-06, x1 = 0.002323) was 0.779 ± 0.06 mPa·s and the viscosity (308.15 K, x2 = 7.19e-06, x1 = 0.002648) was 0.784 ± 0.061 mPa·s. It also gave a viscosity (308.15 K, x2 = 7.2e-06, x1 = 0.0009003) of 0.756 ± 0.06 mPa·s, a viscosity (308.15 K, x2 = 7.2e-06, x1 = 0.001314) of 0.763 ± 0.06 mPa·s and a viscosity (308.15 K, x2 = 7.2e-06, x1 = 0.001634) of 0.768 ± 0.06 mPa·s. It also gave a viscosity (308.15 K, x2 = 1.438e-05, x1 = 0.002366) of 0.784 ± 0.06 mPa·s, a viscosity (308.15 K, x2 = 1.438e-05, x1 = 0.002756) of 0.791 ± 0.061 mPa·s and a viscosity (308.15 K, x2 = 1.439e-05, x1 = 0.001528) of 0.77 ± 0.06 mPa·s. It also gave a viscosity (308.15 K, x2 = 1.439e-05, x1 = 0.001964) of 0.777 ± 0.06 mPa·s, a viscosity (308.15 K, x2 = 1.44e-05, x1 = 0.0009094) of 0.759 ± 0.06 mPa·s and a viscosity (308.15 K, x2 = 1.44e-05, x1 = 0.001186) of 0.764 ± 0.06 mPa·s. The viscosity (308.15 K, x2 = 2.157e-05, x1 = 0.002446) was 0.79 ± 0.06 mPa·s, the viscosity (308.15 K, x2 = 2.157e-05, x1 = 0.002688) was 0.795 ± 0.061 mPa·s and the viscosity (308.15 K, x2 = 2.158e-05, x1 = 0.00199) was 0.782 ± 0.06 mPa·s. The viscosity (308.15 K, x2 = 2.159e-05, x1 = 0.001338) was 0.77 ± 0.06 mPa·s, the viscosity (308.15 K, x2 = 2.159e-05, x1 = 0.001717) was 0.777 ± 0.06 mPa·s and the viscosity (308.15 K, x2 = 2.16e-05, x1 = 0.0009887) was 0.763 ± 0.06 mPa·s. It also gave a viscosity (318.15 K, x2 = 7.19e-06, x1 = 0.001926) of 0.642 ± 0.06 mPa·s, a viscosity (318.15 K, x2 = 7.19e-06, x1 = 0.002323) of 0.647 ± 0.06 mPa·s and a viscosity (318.15 K, x2 = 7.19e-06, x1 = 0.002648) of 0.651 ± 0.06 mPa·s. For the same compound, the viscosity (318.15 K, x2 = 7.2e-06, x1 = 0.0009003) was 0.629 ± 0.06 mPa·s, the viscosity (318.15 K, x2 = 7.2e-06, x1 = 0.001314) was 0.634 ± 0.06 mPa·s and the viscosity (318.15 K, x2 = 7.2e-06, x1 = 0.001634) was 0.638 ± 0.06 mPa·s. It also gave a viscosity (318.15 K, x2 = 1.438e-05, x1 = 0.002366) of 0.651 ± 0.06 mPa·s, a viscosity (318.15 K, x2 = 1.438e-05, x1 = 0.002756) of 0.656 ± 0.06 mPa·s and a viscosity (318.15 K, x2 = 1.439e-05, x1 = 0.001528) of 0.639 ± 0.06 mPa·s. The viscosity (318.15 K, x2 = 1.439e-05, x1 = 0.001964) was 0.645 ± 0.06 mPa·s, the viscosity (318.15 K, x2 = 1.44e-05, x1 = 0.0009094) was 0.63 ± 0.06 mPa·s and the viscosity (318.15 K, x2 = 1.44e-05, x1 = 0.001186) was 0.634 ± 0.06 mPa·s. The viscosity (318.15 K, x2 = 2.157e-05, x1 = 0.002446) was 0.654 ± 0.06 mPa·s, the viscosity (318.15 K, x2 = 2.157e-05, x1 = 0.002688) was 0.658 ± 0.06 mPa·s and the viscosity (318.15 K, x2 = 2.158e-05, x1 = 0.00199) was 0.647 ± 0.06 mPa·s. For the same compound, the viscosity (318.15 K, x2 = 2.159e-05, x1 = 0.001338) was 0.637 ± 0.06 mPa·s, the viscosity (318.15 K, x2 = 2.159e-05, x1 = 0.001717) was 0.643 ± 0.06 mPa·s and the viscosity (318.15 K, x2 = 2.16e-05, x1 = 0.0009887) was 0.632 ± 0.06 mPa·s.
